Results from patent US9365522B2, “Pyrazole amide derivative” (AMGEN INC., priority 2015, dated 2016).

Target: T1, ligand binding domain of human ROR gamma (Homo sapiens, UniProt P51449)
T1 construct: NM_001001523; expressed in transfected cells; host or cells: HEK293T
T1 sequence (P51449 247-497 isoform P51449-2): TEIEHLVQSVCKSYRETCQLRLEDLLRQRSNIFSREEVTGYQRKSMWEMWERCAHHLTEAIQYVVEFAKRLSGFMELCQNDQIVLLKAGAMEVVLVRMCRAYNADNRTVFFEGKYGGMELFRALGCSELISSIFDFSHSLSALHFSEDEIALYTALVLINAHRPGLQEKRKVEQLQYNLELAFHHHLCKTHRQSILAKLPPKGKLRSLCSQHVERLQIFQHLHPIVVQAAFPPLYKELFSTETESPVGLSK
Assay: ROR gamma reporter gene assay (GAL4-RORγ LBD luciferase, Dual-Glo)
Assay type: cell-based
Settings: HEK293T cells transfected with pM-ROR gamma, 8 concentrations 3.5 nM to 10.5 μM, 24 h incubation; read-out: result (pIC50, inhibition of RORγ transcriptional activity) (converted)
In short: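 Transient GAL4-RORγ LBD (aa 247-497) / 5×UAS-luc / pRL-CMV cotransfection in HEK293T, charcoal-stripped 10% FBS. 8-pt dose, 3.5 nM–10.5 μM, 0.075% DMSO final. 24 h, 37 °C, 5% CO2. Dual-Glo firefly/renilla readout; pIC50 from curve fit.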

Compound | IC50
CC1(C)CCC(CN(CC(=O)c2c(Cl)cc(F)cc2Cl)C(=O)c2cnn([C@H]3CC[C@](C)(C(=O)O)CC3)c2C(F)(F)F)CC1 [Example 220, trans-4-(4-((2-(2,6-dichloro-4-fluorophenyl)-2-oxoethyl)-((4,4-dimethylcyclohexyl)methyl)carbamoyl)-5-(trifluoromethyl)pyrazol-1-yl)-1-methylcyclohexane-1-carboxylic acid] | 105000 pM
N[C@]1(C(=O)O)CC[C@H](n2ncc(C(=O)N(CC(=O)c3c(Cl)cncc3Cl)Cc3ccc(F)cc3)c2C(F)(F)F)CC1 [Example 117, cis-4-(4-((2-(3,5-dichloropyridin-4-yl)-2-oxoethyl)-((4-fluorophenyl)methyl)carbamoyl)-5-(trifluoromethyl)pyrazol-1-yl)-1-aminocyclohexane-1-carboxylic acid] | 3.55e+06 pM
CC1(C)[C@@H]2C[C@H](N(C[C@H](O)c3ncccc3Cl)C(=O)c3cnn([C@H]4CC[C@](C)(C(=O)O)CC4)c3C(F)(F)F)C[C@@H]21 [Example 390, trans-4-(4-((2-(3-chloropyridin-2-yl)-2-hydroxyethyl)((1R,3r,5S)-6,6-dimethylbicyclo[3.1.0]hexan-3-yl)carbamoyl)-5-(trifluoromethyl)-1H-pyrazol-1-yl)-1-methylcyclohexanecarboxylic acid] | 331000 pM
O=C(CN(Cc1cc(F)cc(F)c1)C(=O)c1cnn([C@H]2CC[C@H](C(=O)O)CC2)c1C(F)(F)F)c1ccccc1Cl [Example 99, trans-4-(4-((2-(2-chlorophenyl)-2-oxoethyl)-((3,5-difluorophenyl)methyl)carbamoyl)-5-(trifluoromethyl)pyrazol-1-yl)cyclohexane-1-carboxylic acid] | 105000 pM
C[C@]1(C(=O)O)CC[C@H](n2ncc(C(=O)N(CC(=O)c3c(Cl)cc(Cl)cc3Cl)C3CCC4(CC3)COC4)c2C(F)(F)F)CC1 [Example 289, trans-1-methyl-4-(4-(2-oxaspiro[3.5]nonan-7-yl-(2-oxo-2-(2,4,6-trichlorophenyl)ethyl)carbamoyl)-5-(trifluoromethyl)pyrazol-1-yl)cyclohexane-1-carboxylic acid] | 93300 pM
CC1(C)[C@@H]2C[C@H](N(C[C@H](O)c3c(F)cccc3Cl)C(=O)c3cnn([C@H]4CC[C@](C)(C(=O)O)CC4)c3C(F)(F)F)C[C@@H]21 [Example 354, trans-4-(4-((2-(2-chloro-6-fluorophenyl)-2-hydroxyethyl)((1R,3r,5S)-6,6-dimethylbicyclo[3.1.0]hexan-3-yl)carbamoyl)-5-(trifluoromethyl)-1H-pyrazol-1-yl)-1-methylcyclohexanecarboxylic acid] | 513000 pM
Cc1ccnc(C)c1C(=O)CN(Cc1cc(F)cc(F)c1)C(=O)c1cnn([C@H]2CC[C@H](C(=O)O)CC2)c1C(F)(F)F [Example 134, trans-4-(4-((3,5-difiuorophenyl)methyl-(2-(2,4-dimethylpyridin-3-yl)-2-oxoethyl)carbamoyl)-5-(trifluoromethyl)pyrazol-1-yl)cyclohexane-1-carboxylic acid] | 245000 pM
CC(C)(C)CN(CC(=O)c1c(Cl)cccc1C(F)(F)F)C(=O)c1cnn([C@H]2CC[C@](C)(C(=O)O)CC2)c1C(F)(F)F [Example 265] | 18200 pM
COc1cncc(Cl)c1C(=O)CN(Cc1ccc(F)cc1)C(=O)c1cnn([C@H]2CC[C@H](C(=O)O)CC2)c1C(F)(F)F [Example 188, trans-4-(4-((2-(3-chloro-5-methoxypyridin-4-yl)-2-oxoethyl)-((4-fluorophenyl)methyl)carbamoyl)-5-(trifluoromethyl)pyrazol-1-yl)cyclohexane-1-carboxylic acid] | 275000 pM
O=C(CN(Cc1ccc(F)cc1)C(=O)c1cnn([C@H]2CC[C@](F)(C(=O)O)CC2)c1C(F)(F)F)c1c(Cl)cncc1Cl [Example 81, cis-4-(4-((2-(3,5-dichloropyridin-4-yl)-2-oxoethyl)(4-fluorobenzyl)carbamoyl)-5-(trifluoromethyl)-1H-pyrazol-1-yl)-1-fluorocyclohexanecarboxylic acid] | 93300 pM
CC(C)(CN(Cc1cc(F)cc(F)c1)C(=O)c1cnn([C@H]2CC[C@H](C(=O)O)CC2)c1C(F)(F)F)c1c(Cl)cccc1Cl [Example 118, trans-4-(4-((2-(2,6-dichlorophenyl)-2-methylpropyl)-((3,5-difluorophenyl)methyl)carbamoyl)-5-(trifluoromethyl)pyrazol-1-yl)cyclohexane-1-carboxylic acid] | 1.74e+06 pM
Cc1cc(Cl)c(C(=O)CN(CC23CCC(C)(CC2)O3)C(=O)c2cnn(C34CCC(C(=O)O)(CC3)CC4)c2C(F)(F)F)c(Cl)c1 [Example 261, 4-(4-((2-(2,6-dichloro-4-methylphenyl)-2-oxoethyl)-((1-methyl-7-oxabicyclo[2.2.1]heptan-4-yl)methyl)carbamoyl)-5-(trifluoromethyl)pyrazol-1-yl)bicyclo[2.2.2]octane-1-carboxylic acid] | 4570 pM
O=C(CN(Cc1ccc(F)cc1)C(=O)c1cnn([C@H]2CC[C@@H](C(=O)O)CC2)c1C(F)(F)F)c1c(Cl)cncc1Cl [Example 25, cis-4-(4-((2-(3,5-dichloropyridin-4-yl)-2-oxoethyl)(4-fluorobenzyl)carbamoyl)-5-(trifluoromethyl)-1H-pyrazol-1-yl)cyclohexaneca rboxylic acid] | 263000 pM
CC1(C)CC(CN(CC(=O)c2c(Cl)cc(Cl)cc2Cl)C(=O)c2cnn([C@H]3CC[C@](C)(C(=O)O)CC3)c2C(F)(F)F)C1 [Example 250, trans-4-(4-((3,3-dimethylcyclobutyl)methyl-(2-oxo-2-(2,4,6-trichlorophenyl)ethyl)carbamoyl)-5-(trifluoromethyl)pyrazol-1-yl)-1-methylcyclohexane-1-carboxylic acid] | < 3470 pM
Cc1c(C(=O)N(CC(=O)c2c(Cl)cncc2Cl)CC2CC(C)(C)C2)cnn1[C@H]1CC[C@](C)(C(=O)O)CC1 [Example 382, trans-4-(4-((2-(3,5-dichloropyridin-4-yl)-2-oxoethyl)-((3,3-dimethylcyclobutyl)methyl)carbamoyl)-5-methylpyrazol-1-yl)-1-methylcyclohexane-1-carboxylic acid] | 257000 pM
CC1(C)[C@@H]2C[C@H](N(CC(=O)c3c(Cl)cccc3C(F)(F)F)C(=O)c3cnn([C@H]4CC[C@](C)(C(=O)O)CC4)c3C(F)(F)F)C[C@@H]21 [Example 222, trans-4-(4-((2-(2-chloro-6-(trifluoromethyl)phenyl)-2-oxoethyl)-((1R,3r,5S)-6,6-dimethyl-3-bicyclo[3.1.0]hexanyl)carbamoyl)-5-(trifluoromethyl)pyrazol-1-yl)-1-methylcyclohexane-1-carboxylic acid] | 4170 pM
C[C@]1(C(=O)O)CC[C@H](n2ncc(C(=O)N(CC(=O)c3c(Cl)cc(F)cc3Cl)Cc3cc(F)cc(F)c3)c2C(F)F)CC1 [Example 197, trans-4-(4-((2-(2,6-dichloro-4-fluorophenyl)-2-oxoethyl)-((3,5-difluorophenyl)methyl)carbamoyl)-5-(difluoromethyl)pyrazol-1-yl)-1-methylcyclohexane-1-carboxylic acid] | 513000 pM
